Assay results published in patent US20230015539A1, “METHOD OF TREATMENT WITH KCNQ CHANNEL OPENERS” (Icahn School of Medicine at Mount Sinai, priority 2019, published 2023).
“Also recorded” adds a separate entry of the source.

Legend:
[1] = human, in vivo; cited from earlier work
[2] = test system: patients enduring stressful life situations; assay: Example 5: inducing resilience in patients enduring stressful life situations; assay type: in vivo, human; details: 900 mg oral (300 mg TID) daily; example in present tense
[3] = test system: patients diagnosed with an anxiety disorder; assay: Example 3: treatment of patients with an anxiety disorder; details: 900 mg oral (300 mg TID); example in present tense
[4] = biological target: P-glycoprotein (Homo sapiens, UniProt P08183); details: cited from earlier work
[5] = test system: patients with major depressive disorder (MDD) or persistent depressive disorder (PDD); assay: Multi-center, double-blind, randomized, placebo-controlled clinical trial of ezogabine (clinical rating scales); assay type: in vivo, human
Excerpt: The well-known Montgomery-Asberg Depression Rating Scale (MADRS) is employed to capture change in overall depressive severity. […] The primary clinical outcome is a MADRS subscale composed of items 7 and 8 from the MADRS that capture symptoms of reduced motivation, low energy, and loss of interest or pleasure, which are termed “MADRS”.
The Temporal Experience of Pleasure Scale (TEPS) is designed to capture the separate reward processing components of anticipation and consumption, mapping the PVS constructs of AM/reward expectancy and IRRA/SSRA, respectively.
The TEPS is an 18-item self-report measurement of anticipatory (10 items) and consummatory (eight items) components of anhedonia which consists of a series of statements that must be rated according to how accurate they are for the individual. The scale differentiates the role of anticipatory pleasure (‘wanting’) from consummatory pleasure (‘liking’). The TEPS-Anticipatory sub-scale is a validated measure of anticipation of reward (higher scores are better); the TEPS-Consummatory sub-scale is a validated measure of response to receipt of reward.
Two additional instruments include the Specific Loss of Interest and Pleasure Scale (SLIPS) and the Anticipatory and Consummatory Interpersonal Pleasure Scale (ACIPS) which offer additional unique features, including specificity for anhedonia in the context of depression, and a focus on social aspects of reward.
The Quick Inventory of Depressive Symptomatology-Self-Report (QIDS-SR) is a validated self-report of depression.
The CGI-S/I will provide an overall clinician-determined summary measure that takes into account all available information, including knowledge of the subject's history, psychosocial circumstances, symptoms, behavior, and the impact of the symptoms on the subject's ability to function. The CGI evaluates the severity of psychopathology from 1 to 7. The CGI-S is a widely administered clinician rated global measure of overall illness severity. Subjects are rated on a 1-7 scale where 1 corresponds to “Normal, Not at All Ill”, 2 is “Borderline Mentally Ill”, the anchor for 3 is “Mildly Ill”, the anchor for 4 is “Moderately Ill”, 5 is “Markedly Ill”, 6 is “Severely Ill”, and 7 is “Among the Most Extremely Ill Patients”. It will be administered at all subject visits. The CGI-I is a widely administered clinician rated global measure of the degree of improvement from the initial assessment in subject overall illness severity. […] It will be administered at all subject visits.
The study procedures were conducted at the Icahn School of Medicine at Mount Sinai in New York City and at Baylor College of Medicine in Houston, Tex. Participants were between the ages of 18 and 65 and meet DSM-V criteria for major depressive disorder (MDD) or persistent depressive disorder (PDD, a chronic form of depression), as assessed by a trained rater using the Structured Clinical Interview for Diagnostic and Statistical Manual of Mental Disorders-Fifth Edition Text Revision (DSM-V-TR) Axis I Disorders, Patient Edition (SCID-I/P).
Following screening (Day −28 to Day −2), screening data was reviewed by the site PI to determine subject eligibility. Subjects who met all inclusion criteria and none of the exclusion criteria entered into the study. All eligible participants returned to the clinics to complete the baseline assessments and undergo randomization (Day 0, Baseline). Baseline assessments included clinical evaluations, the PRT and fMRI scanning (details below). […] Randomization was balanced by using randomly permuted blocks and stratified by center. A computer-generated randomization scheme developed by the coordinating site assigned a unique treatment code, which dictated the treatment assignment and matching study drug kit for each subject. The randomization list was provided by the research pharmacist at the coordinating site to the research pharmacist at the collaboration site.

[6] = test system: patients diagnosed with PTSD; assay: Example 4: treatment of patients with PTSD; assay type: in vivo, human; details: 900 mg oral (300 mg TID) daily; example in present tense
[7] = test system: patients with treatment resistant depression (TRD); assay: Sub-group analysis of the clinical trial: patients with treatment resistant depression (TRD), MADRS
Excerpt: Treatment resistance is defined as at least one probable treatment failure as captured and by the Antidepressant Treatment form (AHTF).

[8] = test system: ventral striatum (VS); assay: fMRI during the Incentive Flanker Task: activation to reward anticipation; assay type: in vivo, human; details: baseline to primary outcome visit; ezogabine compared to placebo; n=40
Excerpt: Following screening (Day −28 to Day −2), screening data was reviewed by the site PI to determine subject eligibility. Subjects who met all inclusion criteria and none of the exclusion criteria entered into the study. All eligible participants returned to the clinics to complete the baseline assessments and undergo randomization (Day 0, Baseline). Baseline assessments included clinical evaluations, the PRT and fMRI scanning (details below). […] Randomization was balanced by using randomly permuted blocks and stratified by center. […]
At each visit, participants completed self-report and clinician-administered rating scales performed by trained raters, and met with a study psychiatrist who assessed suicidal thinking or behavior, adverse events (AE), and changes in concomitant medications. […]
The primary outcome measure of the study was a change in activation within the bilateral ventral striatum (VS, FIG. 1) from baseline (Study Visit 0) to the primary outcome visit (Study Visit 5) as measured by functional magnetic resonance imaging (fMRI) during the Incentive Flanker Task (IFT), a variant of the monetary incentive delay task (MID) as described above. […] Additional secondary outcome included change in behavioral symptoms of anhedonia through a computer-based task, the Probabilistic Reward Task (PRT), and global illness improvement and severity evaluated through changes in CGI-I and CGI-S scores. […]

Chain of P-glycoprotein (P08183 whole entry): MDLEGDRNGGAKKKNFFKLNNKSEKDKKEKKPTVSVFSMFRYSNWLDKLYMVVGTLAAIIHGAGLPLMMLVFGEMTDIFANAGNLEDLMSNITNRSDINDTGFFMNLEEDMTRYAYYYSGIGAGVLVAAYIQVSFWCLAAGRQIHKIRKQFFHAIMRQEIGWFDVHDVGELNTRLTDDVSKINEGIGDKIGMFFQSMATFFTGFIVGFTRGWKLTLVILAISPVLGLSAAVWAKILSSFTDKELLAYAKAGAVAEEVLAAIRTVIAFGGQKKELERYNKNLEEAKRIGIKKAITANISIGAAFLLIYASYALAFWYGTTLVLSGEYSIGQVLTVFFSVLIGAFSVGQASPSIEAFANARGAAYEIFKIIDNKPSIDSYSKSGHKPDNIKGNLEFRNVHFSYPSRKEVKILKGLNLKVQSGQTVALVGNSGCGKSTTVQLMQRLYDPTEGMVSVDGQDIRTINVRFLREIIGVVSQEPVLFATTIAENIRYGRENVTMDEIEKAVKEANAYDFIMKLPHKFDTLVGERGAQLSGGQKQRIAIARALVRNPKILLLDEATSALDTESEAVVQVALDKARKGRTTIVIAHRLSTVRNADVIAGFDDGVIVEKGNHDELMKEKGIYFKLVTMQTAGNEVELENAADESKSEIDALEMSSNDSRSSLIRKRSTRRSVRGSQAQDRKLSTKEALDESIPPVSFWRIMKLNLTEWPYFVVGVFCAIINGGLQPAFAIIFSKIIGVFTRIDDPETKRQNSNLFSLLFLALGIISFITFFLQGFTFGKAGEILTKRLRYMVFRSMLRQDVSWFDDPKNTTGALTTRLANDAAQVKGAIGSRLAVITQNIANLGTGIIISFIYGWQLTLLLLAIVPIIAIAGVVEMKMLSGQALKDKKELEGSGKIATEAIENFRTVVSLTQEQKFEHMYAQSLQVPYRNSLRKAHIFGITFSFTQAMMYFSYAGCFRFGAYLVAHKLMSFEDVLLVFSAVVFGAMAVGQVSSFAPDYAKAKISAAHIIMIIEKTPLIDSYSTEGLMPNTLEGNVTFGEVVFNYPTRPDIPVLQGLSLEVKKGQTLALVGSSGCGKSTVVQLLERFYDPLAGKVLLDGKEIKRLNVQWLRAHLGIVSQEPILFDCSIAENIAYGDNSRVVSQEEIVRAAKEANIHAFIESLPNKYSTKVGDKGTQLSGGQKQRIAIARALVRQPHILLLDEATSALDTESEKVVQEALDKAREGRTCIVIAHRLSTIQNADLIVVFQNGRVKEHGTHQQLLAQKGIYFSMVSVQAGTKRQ

## CCOC(=O)Nc1ccc(NCc2ccc(F)cc2)cc1N [ezogabine, N-[2-amino-4-(4-fluorobenzylamino)-phenyl] carbamic acid ethyl ester]
[1]
  median time to maximum plasma concentration (Tmax): 30 to 120 min
  metabolism: extensively metabolized primarily via glucuronidation and acetylation
[2]
  resilience: managing emotional health and wellness: better at managing their emotional health and wellness
[3]
  symptoms of anxiety: rapid and sustained alleviation of their symptoms of anxiety
[4]
  P-glycoprotein active transport: not subject to P-glycoprotein active transport
[5]; anhedonia, n=45, p<0.0001
  SHAPS scores, Estimate (ezogabine compared to placebo): −1.55
[5]; at the primary outcome visit, ezogabine up to 900 mg/day oral
  mean change from baseline in MADRS score: 5.9±8.8 points
[5]; ezogabine compared to placebo, medium effect size
  SHAPS, Cohen's d: 0.6
[5]; ezogabine compared to placebo, n=45
  MADRS, Cohen's d: 0.7
[5]; ezogabine compared to placebo, n=45, p=0.0008
  TEPS anticipatory subscale (TEPS-ant), Estimate: 1.33
[5]; ezogabine compared to placebo, p=0.0002
  ACIPS, Estimate: 2.77
[5]; ezogabine compared to placebo, p=0.0009
  SLIPS, Estimate: −1.78
[5]; ezogabine compared to placebo, p=0.05
  TEPS consummatory subscale (TEPS-con), Estimate: 0.64
[5]; human patients with depression and anhedonia, 300 mg TID oral, 5 weeks, SHAPS
  effect on anhedonia symptoms: successfully treated patients suffering from anhedonia; also recorded: reduction in anhedonia and related symptoms
[6]
  PTSD symptoms: alleviated after treatment
[7]; TRD ezogabine, non-TRD ezogabine and placebo groups, p=0.015
  difference in MADRS change (V5 vs V0): TRD versus non-TRD patients: even larger benefit of treatment compared to placebo in the TRD patients than in the non-TRD patients
[7]; TRD patients, change over time
  onset of improvement in MADRS scores, ezogabine TRD group: significant improvement after a single treatment
[7]; TRD patients, ezogabine 900 mg/day vs placebo, ANOVA p=0.024
  effect of treatment on MADRS in patients with TRD: greatest improvement in their MADRS scores; also recorded: significant effect of treatment; also recorded: beneficial effects compared to placebo
[8]
  change in activation to reward anticipation within ventral striatum (fMRI): increased response to reward in the brain
